Patent US10617612B2, “Composition comprising decanal or as active ingredients for preventing hair loss or stimulating hair growth” (INDUSTRY-ACADEMIC COOPERATION FOUNDATION, YONSEI UNIVERSITY, priority 2016, dated 2020)

Key:
[1] = Measurement of body weight change; conditions: 3 mg/mouse/day applied to back skin once a day
Experimental: The animals were kept in a temperature of 21±2.0° C., relative humidity of 50±5%, and 12 hours of day and night cycles. During the experiment, the mice were fed with a regular solid feed (chow) with water freely.
To examine the effect of promoting hair growth, 8-week-old mouse of telogen hair showing pink color of dorsal skin was used. After removing the hair of the mouse backing using a clipper for a mouse, the sample was applied once a day at 4:00 PM for four weeks. Decanal (3 mg/mouse/day) which is experimental material and minoxidil (3 mg/mouse/day) used as a reference drug were dissolved in vehicle (ethanol:water:propylene glycol=5:3:2) and applied, and the vehicle only was applied to the negative control group.
The body weight of the experimental animals was measured weekly from immediately before application of the hair growth treatment to the end of application.

C57BL/6N mice = experiment: Hair regrowth in mice with back hair removed, skin application (visual observation, hair length); type: in vivo; conditions: 3 mg/mouse/day on back skin once a day
Experimental: To visually confirm the state of hair growth, after the animals were lightly anesthetized with ether, the back was photographed, at the end of one week, two weeks, three weeks, and four weeks after application begins, Hair length was measured using a ruler to evaluate the degree of hair growth.

[2] = system: hair follicles of back skin; experiment: Histological analysis of back skin (Hematoxylin-Eosin, hair follicle number and diameter); type: in vivo; conditions: back skin after 4 weeks of application, 3 mg/mouse/day
Text: After 4 weeks of application, the animals were sacrificed and the back skin tissue sample was extracted with scissors and forceps around the area where the experimental material was applied, and fixed with formalin. After each step was dehydrated with alcohol and xylene, the back skin tissue sample was embedded with paraffin, and was cut into 5 μm slice using a microtome, and then paraffin was removed with alcohol and xylene. […] A pathology speculum specialist was examined to evaluate the hair growth cycle, and quantity of hair follicle and diameter were measured on an optical microscope.
The results of measurement of the hair follicle number in each experimental group under an optical microscope of magnification of 40 are illustrated in FIG. 3.

β-catenin [3] = experiment: Western blot of back skin tissue; type: in vivo, mouse; conditions: 4 weeks application
Experimental: A predetermined amount of visceral fat or liver tissue was homogenized with liquid nitrogen and lysis buffer in a mortar, and then centrifuged at 13,000×g at 4° C. for 20 minutes. And the middle layer was taken and the protein was quantified by the Bradford method. 50 μg of protein was electrophoresed on SDS polyacrylamide gel, electro blotted onto PVDF hyper film, and reacted with β-catenin and β-actin antibody (Cell Signaling Technology, Danvers, Mass., USA), respectively. Signals of each protein were visualized using a chemiluminescent detection system (Amersham) and the band thickness was quantified using Quantity One Analysis Software (Bo-Rad Laboratories).
The Wnt/β-catenin Signal transduction pathway is known to be involved in promoting entry into the anagen by regulating hair follicle cycle. The expression level of β-catenin was analyzed by western blotting in the back skin tissues in order to determine whether the signal transduction pathway related to hair growth promotion was activated.

Axin = experiment: RT-PCR gene expression in back skin tissue; type: in vivo, mouse; conditions: 4 weeks application
Experimental: (§1) To quantitatively analyze total RNA in skin tissue of experimental animal, 1 mL of Trizol solution was added to 50-100 mg of skin tissue and homogenized, followed by centrifugation at 12,000×g for 10 minutes at 4° C. After transferring the supernatant liquid to a new tube, 200 μl of chloroform was added and the mixture was vigorously shaken. This process above was repeated twice, then the supernatant liquid was transferred to a new tube and isoprophanol and the supernatant liquid were added at a ratio of 1:1. The mixture was shaken 10 times and then allowed to stand at room temperature for 10 minutes, and the supernatant liquid was removed after centrifugation at 12,000×g for 10 minutes at 4° C., and 1 ml of 70% ethanol was added to the remaining precipitate, and the precipitate was centrifuged at 7,500×g and 4° C. for 5 minutes. After removing the ethanol, the tube containing the RNA precipitate was dried at room temperature for 5 minutes, and the RNA pellet was dissolved using nuclease free water. The concentration of RNA extracted at 260 nm and 280 nm wavelengths was measured using a UV/VIS spectrophotometer (Beckman coulter, DU730), and agarose gel electrophoresis was performed to confirm the integrity of the RNA sample.
(§2) cDNA was synthesized by performing reverse transcription using oligo dT primer and superscript reverse transcriptase (GIBCOBRL, Gaithersburg, Md., USA) after RNA isolation. The cDNA obtained by reverse transcription was determined as a template, and PCR was performed using the 5′ and 3′ flanking sequence of the gene cDNA to be amplified as primers. In this case, primers required were synthesized by a manufacture specialized company of primers (Bionia Co., Ltd., Korea), and the primer sequences were illustrated in Table 1 below. 2 μl of the reacted cDNA reaction mixture and 2.5 units of Taq polymerase (Takara, Japan) were added to a mixture prepared by adding 5 μl of 10× reaction buffer [100 mM KCL, 20 mM Tris-HCL (pH 8.0), 2.5 mM MgCl2], 4 μl of 10 mM dNTP, and 1 μl each of 0.2 μM sense and antisense primer, and the volume was adjusted using 50 μl of distilled water, then PCR was performed using a PCR instrument. PCR conditions were set at 94° C. for 4 minutes, 94° C. for 30 seconds, 30 cycles [52° C. for 30 seconds, 72° C. for 45 seconds] and 72° C. for 10 minutes. Since 1 μl of the amplified product was electrophoresed on 1% agarose gel to check the DNA band, gene expression level was evaluated.
(§3) The expression change of Wnt/β-catenin signal transduction material which was known as hair growth promotion mechanism in the back skin tissue of the mice to which the experimental material was applied for 4 weeks, was analyzed by RT-PCR.

[4] = system: FZD1 (frizzled receptor 1); experiment: RT-PCR gene expression in back skin tissue; type: in vivo, mouse; conditions: 4 weeks application
Experimental: as §1, §2, §3

[5] = system: GSK3β (glycogen synthase kinase 3β); experiment: RT-PCR gene expression in back skin tissue; type: in vivo, mouse; conditions: 4 weeks application
Experimental: as §1, §2, §3

[6] = system: LRP5 (low-density lipoprotein receptor-related protein 5); experiment: RT-PCR gene expression in back skin tissue; type: in vivo, mouse; conditions: 4 weeks application
Experimental: as §1, §2, §3

Wnt10b = experiment: RT-PCR gene expression in back skin tissue; type: in vivo, mouse; conditions: 4 weeks application
Experimental: as §1, §2, §3

β-catenin [7] = experiment: RT-PCR gene expression in back skin tissue; type: in vivo, mouse; conditions: 4 weeks application
Experimental: as §1, §2, §3

[8] = system: hepatocyte growth factor (HGF); experiment: RT-PCR gene expression in back skin tissue; type: in vivo, mouse; conditions: 4 weeks application
Experimental: as §1
as §2, with “PCR conditions were set at 94° C. for 4 minutes, 94° C. for 30 seconds, 30 cycles [52° C. for 30 seconds, 72° C. for 45 seconds] and 72° C. for 10 minutes.” left out
(§4) In addition, to investigate hair growth promoting action mechanism of Decanal, the expression change of endocrine factors affecting hair growth was evaluated. The gene expression level of insulin-like growth factor 1 (IGF1), vascular endothelial growth factor (VEGF), hepatocyte growth factor (HGF), and keratinocyte growth factor (KGF), which were growth factors affecting hair growth promotion in back skin tissue, was evaluated. […]

[9] = system: insulin-like growth factor 1 (IGF1); experiment: RT-PCR gene expression in back skin tissue; type: in vivo, mouse; conditions: 4 weeks application
Experimental: as §1
as §2, with “PCR conditions were set at 94° C. for 4 minutes, 94° C. for 30 seconds, 30 cycles [52° C. for 30 seconds, 72° C. for 45 seconds] and 72° C. for 10 minutes.” left out
as §4

[10] = system: keratinocyte growth factor (KGF); experiment: RT-PCR gene expression in back skin tissue; type: in vivo, mouse; conditions: 4 weeks application
Experimental: as §1
as §2, with “PCR conditions were set at 94° C. for 4 minutes, 94° C. for 30 seconds, 30 cycles [52° C. for 30 seconds, 72° C. for 45 seconds] and 72° C. for 10 minutes.” left out
as §4

[11] = system: vascular endothelial growth factor (VEGF); experiment: RT-PCR gene expression in back skin tissue; type: in vivo, mouse; conditions: 4 weeks application
Experimental: as §1
as §2, with “PCR conditions were set at 94° C. for 4 minutes, 94° C. for 30 seconds, 30 cycles [52° C. for 30 seconds, 72° C. for 45 seconds] and 72° C. for 10 minutes.” left out
as §4

[12] = system: embryos of sea urchins and copepods; conditions: reported physiological activity; cited from earlier work
[13] = system: nematode parasitic on plant roots; conditions: reported; cited from earlier work

For `Nc1cc(N2CCCCC2)nc(N)[n+]1[O-]` [MXD, minoxidil, reference compound], the “Body weight after 4 weeks of application, difference between experimental groups” value [1] was “not significantly different”.

In the case of `CCCCCCCCCC=O` [DC, Decanal], the “Increase of hair length compared to negative control after 4 weeks” value (C57BL/6N mice; 4 weeks, p<0.001) is reported as 438%, the “Visual state of hair growth after 4 weeks” value (C57BL/6N mice; 4 weeks, vs negative control) is reported as “hair was grown evenly and heartily in the larger number of individuals compared to the negative control group” and the “Hair length compared to negative control, from the 2nd week” value (C57BL/6N mice; measured weekly) is reported as “significantly increased from the 2nd week”. The “Onset of hair growth (visual observation)” value (C57BL/6N mice; negative control: no hair after 2 weeks) was “hair began to grow from the 2nd week after application”, the “Histological appearance of hair follicles” value [2] was “the hair follicle was lengthened and appeared outside the skin” and the “Increase of hair follicle diameter compared to negative control” value ([2]; image analysis) was 33%. For the same compound, the “Increase of number of hair follicles compared to negative control” value ([2]; magnification of 40) was 193%, the “β-catenin protein expression effect compared to minoxidil group” value (β-catenin [3]) was “superior to the minoxidil group” and the “Increase of β-catenin protein expression compared to negative control” value (β-catenin [3]; 3 mg/mouse/day) was 79%. For the same compound, the “Axin gene expression compared to negative control” value (Axin) was “significantly decreased”, the “FZD1 gene expression compared to negative control” value [4] was “significantly increased” and the “GSK3β gene expression compared to negative control” value [5] was “significantly decreased”. The “LRP5 gene expression compared to negative control” value [6] was “significantly increased”, the “Wnt10b gene expression compared to negative control” value (Wnt10b) was “significantly increased” and the “β-catenin gene expression compared to negative control” value (β-catenin [7]) was “significantly increased”. The “HGF gene expression compared to negative control” value [8] was “significantly increased expression”, the “IGF1 gene expression compared to negative control” value [9] was “significantly increased expression” and the “KGF gene expression compared to negative control” value [10] was “significantly increased expression”. The “VEGF gene expression compared to negative control” value [11] was “significantly increased expression”, the “Effect on embryos of sea urchins and copepods” value [12] was “a reproductive failure was induced by inducing apoptosis” and the Nematicidal activity [13] was “strong nematicidal activity”. For the same compound, the “Body weight after 4 weeks of application, difference between experimental groups” value [1] was “not significantly different”.
